Test results as given in article PMC3946503, “Impact of the Smoothened Inhibitor, IPI-926, on Smoothened Ciliary Localization and Hedgehog Pathway Activity” (PLoS ONE, 2014).

Molecular target: T1, Smoothened (Smo) (Homo sapiens, UniProt Q99835)
T1 construct: wild-type human Smo overexpressed in C3H10T1/2 cells
Experiment: BODIPY-cyclopamine competition binding on Smo-expressing cells, flow cytometry
Format: cell-based

T1 sequence (Q99835 28-787): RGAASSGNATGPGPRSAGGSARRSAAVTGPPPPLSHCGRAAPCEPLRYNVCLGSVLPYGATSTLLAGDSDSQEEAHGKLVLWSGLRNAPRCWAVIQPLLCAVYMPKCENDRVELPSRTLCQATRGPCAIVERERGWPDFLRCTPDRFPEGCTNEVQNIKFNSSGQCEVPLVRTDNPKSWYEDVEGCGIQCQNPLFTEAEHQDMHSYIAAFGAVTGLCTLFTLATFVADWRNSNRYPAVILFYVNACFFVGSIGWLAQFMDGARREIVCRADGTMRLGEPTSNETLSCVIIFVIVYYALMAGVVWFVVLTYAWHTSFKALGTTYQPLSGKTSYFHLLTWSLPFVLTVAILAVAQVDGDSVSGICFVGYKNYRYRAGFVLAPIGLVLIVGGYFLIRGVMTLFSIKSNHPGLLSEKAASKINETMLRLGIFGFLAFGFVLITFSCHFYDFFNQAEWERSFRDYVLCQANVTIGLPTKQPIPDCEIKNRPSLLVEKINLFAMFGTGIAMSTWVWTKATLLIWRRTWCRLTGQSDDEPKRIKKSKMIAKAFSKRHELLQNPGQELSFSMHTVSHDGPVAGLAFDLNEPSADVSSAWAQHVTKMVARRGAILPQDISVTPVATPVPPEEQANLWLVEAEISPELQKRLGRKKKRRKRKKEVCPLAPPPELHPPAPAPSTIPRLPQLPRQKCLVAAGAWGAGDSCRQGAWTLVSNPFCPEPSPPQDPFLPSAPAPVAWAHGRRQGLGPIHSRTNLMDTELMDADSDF

With CC1=C2C[C@H]3[C@@H](CC[C@@H]4C[C@H](NS(C)(=O)=O)CC[C@@]43C)[C@@H]2CC[C@@]2(C1)O[C@@H]1C[C@H](C)CN[C@H]1[C@H]2C [IPI-926] the EC50 was 1 nM.
